Reference: patent publication US8822517B2, “Arylosulfonamides for the treatment of CNS diseases” (Adamed SP. Z O.O., priority 2010, dated 2014)

Columns and labels:
dopaminergic D3 receptor = dopaminergic D3 receptor (Homo sapiens, UniProt P35462); test: Binding assay D3 (h), [3H]methyl-spiperone, CHO cells; parameters: expressed in transfected cells; host or cells: CHO cells; settings: read-out: D3 [%]
How it was run: (§1)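 Binding read by scintillation counting. Non-specific component defined by excess unlabelled ligand and removed from total counts. Compounds at 1×10^−6 M.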

dopaminergic D2 receptor = dopaminergic D2 receptor (Homo sapiens, UniProt P14416); test: Binding assay D2S (h), [3H]methyl-spiperone, HEK-293 cells; parameters: expressed in transfected cells; host or cells: HEK-293 cells; settings: read-out: D2 [%]
dopaminergic D2 receptor, sequence (P14416 1-414 isoform P14416-2): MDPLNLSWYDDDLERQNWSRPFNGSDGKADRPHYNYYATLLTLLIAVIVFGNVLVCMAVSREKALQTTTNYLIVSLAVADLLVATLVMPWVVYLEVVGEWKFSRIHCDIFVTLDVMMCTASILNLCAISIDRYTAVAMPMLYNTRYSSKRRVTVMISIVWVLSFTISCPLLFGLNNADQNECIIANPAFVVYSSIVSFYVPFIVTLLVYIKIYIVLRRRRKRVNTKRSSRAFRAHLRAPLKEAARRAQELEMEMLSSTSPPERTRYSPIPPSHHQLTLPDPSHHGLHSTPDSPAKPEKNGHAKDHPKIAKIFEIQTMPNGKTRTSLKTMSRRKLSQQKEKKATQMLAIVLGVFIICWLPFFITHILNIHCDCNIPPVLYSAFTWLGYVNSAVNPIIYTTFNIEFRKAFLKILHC
How it was run: as §1

adrenergic α2C receptor = biological target: T1, adrenergic α2C receptor (Homo sapiens, UniProt P18825); test: Binding assay α2C (h), [3H]RX 821002, CHO cells; parameters: expressed in transfected cells; host or cells: CHO cells; settings: read-out: α2C [%]
T1 sequence (P18825 1-462): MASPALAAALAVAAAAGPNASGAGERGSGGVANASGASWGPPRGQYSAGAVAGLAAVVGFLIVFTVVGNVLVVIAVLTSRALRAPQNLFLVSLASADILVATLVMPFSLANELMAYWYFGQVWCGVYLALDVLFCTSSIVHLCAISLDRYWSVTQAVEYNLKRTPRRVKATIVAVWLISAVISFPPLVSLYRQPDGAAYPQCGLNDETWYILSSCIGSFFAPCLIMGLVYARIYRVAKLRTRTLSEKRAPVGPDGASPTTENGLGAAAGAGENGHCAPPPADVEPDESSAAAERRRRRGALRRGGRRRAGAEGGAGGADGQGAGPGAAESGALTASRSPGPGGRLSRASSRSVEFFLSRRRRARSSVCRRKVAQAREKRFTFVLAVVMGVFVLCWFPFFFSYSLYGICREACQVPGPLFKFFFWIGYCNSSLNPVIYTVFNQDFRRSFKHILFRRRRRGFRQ
Procedure: (§2) The specific ligand binding to the receptors is defined as the difference between the total binding and the nonspecific binding determined in the presence of an excess of so unlabelled ligand.
(§3) The specific Ligand binding to the receptor is defined as the difference between total and non-specific binding determined in the presence of an excess of unlabelled ligand. The compounds were tested at a concentration of 1×10^−6 M, and scintillation counting was the method of detection of ligand binding.

sigma σ receptor = test: Binding assay σ (non-selective), [3H]DTG, rat cerebral cortex; settings: percent inhibition of control specific binding; compounds tested at 1×10^−6 M
Procedure: as §2, §3

[1] = biological target: T2, serotonine transporter (SERT) receptor (Homo sapiens, UniProt P31645); test: Binding assay SERT (h), [3H]imipramine, CHO cells; settings: read-out: SERT [%]
T2 construct: expressed in transfected cells; host or cells: CHO cells
T2 sequence (P31645 whole entry): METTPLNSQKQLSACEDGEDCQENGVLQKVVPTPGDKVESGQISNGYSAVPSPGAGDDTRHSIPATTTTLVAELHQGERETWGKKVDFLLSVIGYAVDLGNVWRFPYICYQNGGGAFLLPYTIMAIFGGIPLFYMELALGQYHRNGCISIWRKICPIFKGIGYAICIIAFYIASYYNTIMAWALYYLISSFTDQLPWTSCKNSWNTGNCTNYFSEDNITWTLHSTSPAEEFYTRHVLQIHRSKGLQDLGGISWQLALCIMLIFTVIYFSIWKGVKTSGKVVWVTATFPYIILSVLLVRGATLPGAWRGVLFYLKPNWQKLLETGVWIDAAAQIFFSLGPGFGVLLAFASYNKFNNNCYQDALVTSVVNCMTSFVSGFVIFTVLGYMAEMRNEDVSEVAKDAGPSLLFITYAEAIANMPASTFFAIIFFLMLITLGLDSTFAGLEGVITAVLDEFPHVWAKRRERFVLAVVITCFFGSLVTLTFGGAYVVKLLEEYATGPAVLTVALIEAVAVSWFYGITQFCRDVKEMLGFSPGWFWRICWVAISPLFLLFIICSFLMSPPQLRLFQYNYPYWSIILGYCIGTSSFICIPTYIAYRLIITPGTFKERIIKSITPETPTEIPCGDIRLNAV
How it was run: as §1

muscarinic M3 receptor = biological target: T3, muscarinic M3 receptor (Homo sapiens, UniProt P20309); test: Binding assay M3 (h), [3H]4-DAMP, CHO cells; settings: read-out: M3 [%]
T3 construct: expressed in transfected cells; host or cells: CHO cells
T3 sequence (P20309 whole entry): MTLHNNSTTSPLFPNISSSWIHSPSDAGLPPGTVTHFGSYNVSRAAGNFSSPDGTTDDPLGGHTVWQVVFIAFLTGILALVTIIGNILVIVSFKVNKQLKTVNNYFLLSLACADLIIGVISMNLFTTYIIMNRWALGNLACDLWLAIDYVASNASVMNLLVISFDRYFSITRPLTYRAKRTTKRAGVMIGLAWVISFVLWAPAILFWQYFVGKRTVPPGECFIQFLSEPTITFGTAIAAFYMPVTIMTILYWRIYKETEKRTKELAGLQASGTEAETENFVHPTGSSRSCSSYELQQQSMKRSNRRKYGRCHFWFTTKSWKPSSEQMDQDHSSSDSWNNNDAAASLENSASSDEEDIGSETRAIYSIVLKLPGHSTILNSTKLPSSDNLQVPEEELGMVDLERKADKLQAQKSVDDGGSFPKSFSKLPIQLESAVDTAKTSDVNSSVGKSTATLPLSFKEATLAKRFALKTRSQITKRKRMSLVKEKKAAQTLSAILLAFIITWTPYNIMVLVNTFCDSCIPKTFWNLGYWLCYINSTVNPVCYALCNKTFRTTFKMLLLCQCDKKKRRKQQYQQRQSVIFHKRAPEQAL
Procedure: as §2, §3

[2] = biological target: T4, serotoninergic receptor 5-HT2C (Homo sapiens, UniProt P28335); test: Binding assay 5-HT2C (h), [3H]mesulergine, HEK-293 cells; settings: read-out: 5-HT2C [%]
T4 construct: expressed in transfected cells; host or cells: HEK-293 cells
T4 sequence (P28335 33-458): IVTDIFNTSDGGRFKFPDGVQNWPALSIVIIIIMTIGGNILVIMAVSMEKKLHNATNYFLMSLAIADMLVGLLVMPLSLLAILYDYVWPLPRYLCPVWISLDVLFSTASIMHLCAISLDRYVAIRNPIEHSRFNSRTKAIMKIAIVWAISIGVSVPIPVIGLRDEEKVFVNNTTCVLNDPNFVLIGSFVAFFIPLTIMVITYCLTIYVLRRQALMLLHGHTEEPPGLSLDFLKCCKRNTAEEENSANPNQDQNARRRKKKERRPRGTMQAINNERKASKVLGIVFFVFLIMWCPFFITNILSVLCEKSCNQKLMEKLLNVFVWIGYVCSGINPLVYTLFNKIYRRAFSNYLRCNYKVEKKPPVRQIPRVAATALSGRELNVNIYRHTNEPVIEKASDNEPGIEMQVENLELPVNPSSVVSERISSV
Procedure: as §2, §3

[3] = biological target: serotoninergic 5-HT6 receptor (Homo sapiens, UniProt P50406); test: Binding assay 5-HT6 (h), [3H]LSD, CHO cells; parameters: expressed in transfected cells; host or cells: CHO cells; settings: read-out: 5-HT6
serotoninergic 5-HT6 receptor, sequence (P50406 whole entry): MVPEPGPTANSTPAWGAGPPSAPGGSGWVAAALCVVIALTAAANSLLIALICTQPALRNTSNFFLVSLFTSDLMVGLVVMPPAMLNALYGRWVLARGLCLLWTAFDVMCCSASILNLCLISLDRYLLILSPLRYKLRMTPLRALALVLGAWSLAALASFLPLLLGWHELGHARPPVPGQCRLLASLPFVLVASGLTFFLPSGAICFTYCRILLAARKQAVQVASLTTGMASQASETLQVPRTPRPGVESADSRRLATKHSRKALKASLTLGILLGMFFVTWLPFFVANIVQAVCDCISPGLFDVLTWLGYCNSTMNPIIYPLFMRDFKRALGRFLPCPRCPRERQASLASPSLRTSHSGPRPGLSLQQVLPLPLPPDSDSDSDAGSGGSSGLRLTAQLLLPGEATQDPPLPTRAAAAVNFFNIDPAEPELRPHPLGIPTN
How it was run: as §1

adrenergic α1 receptor = test: Binding assay α1 (non-selective), [3H]prazosin, rat cerebral cortex; settings: percent inhibition of control specific binding; compounds tested at 1×10^−6 M
How it was run: as §1

[4] = biological target: T5, serotoninergic 5-HT1A receptor (Homo sapiens, UniProt P08908); test: Binding assay 5-HT1A (h), [3H]8-OH-DPAT, HEK-293 cells; parameters: expressed in transfected cells; host or cells: HEK-293 cells; settings: read-out: 5-HT1A
T5 sequence (P08908 1-422): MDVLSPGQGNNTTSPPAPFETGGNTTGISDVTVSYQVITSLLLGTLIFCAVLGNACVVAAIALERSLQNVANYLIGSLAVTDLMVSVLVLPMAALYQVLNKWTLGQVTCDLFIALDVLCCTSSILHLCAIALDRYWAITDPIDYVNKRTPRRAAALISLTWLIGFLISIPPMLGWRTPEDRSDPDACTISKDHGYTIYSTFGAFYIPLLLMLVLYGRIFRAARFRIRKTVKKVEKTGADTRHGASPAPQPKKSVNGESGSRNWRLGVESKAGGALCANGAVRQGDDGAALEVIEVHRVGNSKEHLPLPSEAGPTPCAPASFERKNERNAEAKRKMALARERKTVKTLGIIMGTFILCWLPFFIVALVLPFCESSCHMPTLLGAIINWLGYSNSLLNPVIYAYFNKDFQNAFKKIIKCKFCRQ
How it was run: as §1

[5] = biological target: serotoninergic 5-HT7 receptor (Homo sapiens, UniProt P34969); test: Binding assay 5-HT7 (h), [3H]LSD, CHO cells; parameters: expressed in transfected cells; host or cells: CHO cells; settings: read-out: 5-HT7
serotoninergic 5-HT7 receptor, sequence (P34969 whole entry): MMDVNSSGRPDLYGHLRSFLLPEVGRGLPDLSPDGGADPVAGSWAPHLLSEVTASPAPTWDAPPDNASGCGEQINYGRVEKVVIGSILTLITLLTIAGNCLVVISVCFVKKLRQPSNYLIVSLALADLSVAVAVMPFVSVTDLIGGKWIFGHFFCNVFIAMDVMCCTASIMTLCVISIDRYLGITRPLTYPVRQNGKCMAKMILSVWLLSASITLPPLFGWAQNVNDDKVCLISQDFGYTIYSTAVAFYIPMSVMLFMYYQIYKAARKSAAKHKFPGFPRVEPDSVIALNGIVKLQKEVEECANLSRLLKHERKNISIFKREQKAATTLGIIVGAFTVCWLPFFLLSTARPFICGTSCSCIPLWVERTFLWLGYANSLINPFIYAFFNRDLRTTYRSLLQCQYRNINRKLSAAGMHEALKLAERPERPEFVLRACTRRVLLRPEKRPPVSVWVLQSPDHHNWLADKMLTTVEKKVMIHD
How it was run: as §1

[6] = biological target: serotoninergic 5-HT2A receptor (Homo sapiens, UniProt P28223); test: Binding assay 5-HT2A (h), [3H]ketanserin, HEK-293 cells; parameters: expressed in transfected cells; host or cells: HEK-293 cells; settings: read-out: 5-HT2A
serotoninergic 5-HT2A receptor, sequence (P28223 whole entry): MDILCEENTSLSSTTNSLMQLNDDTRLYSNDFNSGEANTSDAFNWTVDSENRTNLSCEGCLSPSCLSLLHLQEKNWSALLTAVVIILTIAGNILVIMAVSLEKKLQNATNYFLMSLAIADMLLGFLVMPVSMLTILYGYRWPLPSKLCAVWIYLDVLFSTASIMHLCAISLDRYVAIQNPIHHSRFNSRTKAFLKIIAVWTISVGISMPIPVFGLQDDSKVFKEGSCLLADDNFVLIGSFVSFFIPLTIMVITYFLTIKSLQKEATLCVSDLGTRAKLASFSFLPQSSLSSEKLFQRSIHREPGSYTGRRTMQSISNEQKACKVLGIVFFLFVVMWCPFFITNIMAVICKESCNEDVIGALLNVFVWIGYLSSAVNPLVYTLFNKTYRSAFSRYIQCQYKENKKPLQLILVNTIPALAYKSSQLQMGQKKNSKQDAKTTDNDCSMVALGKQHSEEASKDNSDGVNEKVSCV
How it was run: as §1

[7] = biological target: histaminergic H1 receptor (Homo sapiens, UniProt P35367); test: Binding assay H1 (h), [3H]pyrilamine, HEK-293 cells; parameters: expressed in transfected cells; host or cells: HEK-293 cells; settings: read-out: H1 [%]
histaminergic H1 receptor, sequence (P35367 whole entry): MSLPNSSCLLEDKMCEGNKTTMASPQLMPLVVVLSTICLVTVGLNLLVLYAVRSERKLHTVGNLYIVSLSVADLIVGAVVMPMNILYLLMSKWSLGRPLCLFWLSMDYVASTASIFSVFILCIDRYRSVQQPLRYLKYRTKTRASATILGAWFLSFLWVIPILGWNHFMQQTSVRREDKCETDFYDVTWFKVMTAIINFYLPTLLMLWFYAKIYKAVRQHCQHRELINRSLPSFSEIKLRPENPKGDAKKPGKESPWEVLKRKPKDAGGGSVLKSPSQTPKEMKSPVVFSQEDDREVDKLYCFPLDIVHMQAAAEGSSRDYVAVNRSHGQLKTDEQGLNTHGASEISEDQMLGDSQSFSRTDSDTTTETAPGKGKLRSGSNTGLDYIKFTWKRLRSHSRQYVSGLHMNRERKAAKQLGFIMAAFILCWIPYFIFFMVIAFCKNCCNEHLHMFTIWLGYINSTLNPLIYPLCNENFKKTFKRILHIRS
Procedure: as §2, §3

dopaminergic D3 receptor, sequence (P35462 whole entry): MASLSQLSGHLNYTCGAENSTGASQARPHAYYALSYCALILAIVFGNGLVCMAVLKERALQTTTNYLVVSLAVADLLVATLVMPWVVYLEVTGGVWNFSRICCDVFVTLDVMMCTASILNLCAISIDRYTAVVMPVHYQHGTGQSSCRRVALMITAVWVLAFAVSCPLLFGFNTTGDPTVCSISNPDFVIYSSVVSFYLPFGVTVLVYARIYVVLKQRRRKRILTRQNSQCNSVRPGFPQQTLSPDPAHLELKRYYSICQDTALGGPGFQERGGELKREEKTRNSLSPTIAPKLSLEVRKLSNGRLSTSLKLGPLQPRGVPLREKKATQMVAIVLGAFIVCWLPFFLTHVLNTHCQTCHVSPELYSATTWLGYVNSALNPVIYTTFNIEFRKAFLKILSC

| SMILES | inhibition at 1 µM (dopaminergic D3 receptor) [%] | inhibition at 1 µM (dopaminergic D2 receptor) [%] | inhibition at 1 µM (adrenergic α2C receptor) [%] | σ [%] (sigma σ receptor) | inhibition at 1 µM [1] [%] | inhibition at 1 µM (muscarinic M3 receptor) [%] | inhibition at 1 µM [2] [%] | inhibition at 1 µM [3] [%] | α1 [%] (adrenergic α1 receptor) | inhibition at 1 µM [4] [%] | inhibition at 1 µM [5] [%] | inhibition at 1 µM [6] [%] | inhibition at 1 µM [7] [%] |
| --- | --- | --- | --- | --- | --- | --- | --- | --- | --- | --- | --- | --- | --- |
| O=S(=O)(NCCCN1CCN(c2nsc3ccccc23)CC1)c1ccc2cn[nH]c2c1 [Compound 268, N-[3-[4-(1,2-Benzothiazol-3-yl)piperazin-1-yl]propyl]-1H-indazole-6-sulphonamide] | 98 | 98 | 99 | 30 | 86 | 14 | 78 | 93 | 90 | 98 | 99 | 102 | 95 |
| O=S(=O)(NCCCCN1CCC(c2noc3cc(F)ccc23)CC1)c1cccs1 [Compound 325, N-[4-[4-(6-Fluoro-1,2-benzoxazol-3-yl)piperidin-1-yl]butyl]thiophene-2-sulphonamide] | 95 | 96 | 93 | 85 | 20 | 26 | 49 | 72 | 95 | 62 | 98 | 102 | 83 |
| O=S(=O)(NCCCN1CCC(c2noc3cc(F)ccc23)CC1)c1cnc2ccccn12 [Compound 356, N-[3-[4-(6-Fluoro-1,2-benzoxazol-3-yl)piperidin-1-yl]propyl]imidazo[1,2-a]pyridine-3-sulphonamide] | 96 | 98 | 96 | 70 | 11 | 2 | 83 | 78 | 101 | 95 | 99 | 99 | 80 |
| O=S(=O)(NCCCN1CCN(c2nsc3ccccc23)CC1)c1cccs1 [Compound 261, N-[3-[4-(1,2-Benzothiazol-3-yl)piperazin-1-yl]propyl]thiophene-2-sulphonamide] | 98 | 97 | 92 | 57 | 60 | 15 | 87 | 83 | −90 | 98 | 100 | 102 | 92 |
| O=S(=O)(NCCCCN1CCC(c2noc3cc(F)ccc23)CC1)c1ccc(Cl)s1 [Compound 308, 5-Chloro-N-[4-[4-(6-fluoro-1,2-benzoxazol-3-yl)piperidin-1-yl]butyl]thiophene-2-sulphonamide] | 95 | 96 | 96 | 86 | 28 | 30 | 57 | 83 | 91 | 81 | 99 | 102 | 92 |
| CC(C)(C)c1ccc(S(=O)(=O)NCCCN2CCN(c3nsc4ccccc34)CC2)cc1 [Compound 256, N-[3-[4-(1,2-Benzothiazol-3-yl)piperazin-1-yl]propyl]-4-tert-butylbenzenesulphonamide] | 96 | 97 | 92 | 41 | 93 | 15 | 94 | 95 | 87 | 96 | 100 | 102 | 94 |
